{
  "source": "patent EP0297946A2",
  "about": "“Cytochalasin purification methods and compositions” (priority 1987, dated 1989)",
  "key": {"[1]": {"conditions": "short-term exposure of about 2 hours; cited from earlier work"}, "B16F10 tumor": {"tested_on": "B16F10 tumor", "assay": "Dose response against B16F10 tumor in mice, CB given peri-tumorally SC", "type": "in vivo", "method": "CB (100 mg/kg) administered peri-tumorally delays the tumor appears from Day 7 to Day 18, when treatment is administered on Day 1."}, "[2]": {"tested_on": "Madison 109 (M109) carcinoma", "assay": "Madison 109 carcinoma tumor model in mice treated with a single bolus of CB", "type": "in vivo, CD2F₁ mice", "method": "For SC tumors, growth was monitored by calculating tumor weight according to the methods of Johnson et al. (1975, Cancer Chemo. Rep., 59(4):697-705). For IP and IV-induced tumors, growth was determined by host survival. Metastases were determined at necropsy by fixation of the organ in Bouins solution according to standard procedure, and metastatic foci counted under a dissecting microscope (see Table 1).\nMadison 109 (M109) carcinoma was maintained in Balb/c and CD2F₁ mice by serial passage of 20% tumor brei (approximately 1X10⁶ total cells) in mice every 12 days according to the techniques of Rose (1981, Cancer Treat. Rep., 65:299-312). The CD2F₁ were implanted with 0.2 ml M109 SC ventrally on the abdomen. Tumor brei were prepared by excising the tumor from the passage mouse, removing any necrotic areas, weighing the tumor, mincing it, and suspending the fragments in 0.1 ml 20% (v/v) penicillin/streptomycin (Gibco) and 0.85% (w/v) sterile sodium chloride solution (total 1.0 ml/g tumor), and dispersed by repeated aspiration and expulsion through a syringe. The suspension was then diluted to 20% with 0.85% sterile sodium chloride and 0.2 ml was injected SC. Viability of the tumor suspension was about 20%, as determined by the standard trypan blue exclusion test.\nThe above procedure was repeated, administering the M109 tumor brei IV 90.1 ml) through the tail vein, or IP (0.2 ml).\nMice (6) were subcutaneously implanted with 1X10⁵ tumor cells as isolated in Example 4 on Day 0, and drug treatment was given on Day 1. CB (100 mg/kg mouse, or 0.2 ml of 10.0 mg/ml CB, per 20 gm mouse), suspended in CMC/Tw was administered to mice.\nLower tumor weight was detected in all the treated groups as compared to controls, although this difference lessened with advancing stage of tumor growth. […] No effect on reducing tumor metastases in the liver or spleen was detected with SC administration of CB."}, "[3]": {"assay": "Tissue distribution of CB in vivo after IP bolus injection, HPLC analysis of tissue extracts", "parameters": "species or system mice", "conditions": "50 mg/kg IP single bolus", "method": "(§1) The maximum tolerated single bolus dose (MTD) of CB (LD₅₋₁₀) was estimated as a function of vehicle and route of administration, in M109 tumor-bearing, B16F10 tumor-bearing, and normal mice (Table 2). Both CD2F₁ and B6D2F₁ mice were tested. […] In tissue distribution studies of CB in vivo, 50 mg/kg (1000 ug/20 g mouse) was injected intraperitoneally and the distribution determined at time intervals thereafter as explained in Example 13. […] It is cleared from the spleen and pancreas by 12 hours, but persists in liver for 72 hours. Some CB is metabolized within the first few minutes after injection, but the remaining 35% persists in liver for up to 72 hours. Sustained release formulations such as liposomes would maintain active CB in tissues.\nLivers of mice treated according to Examples 4, 5 and 6 were homogenized with a Brinkman polytron using 5.0 ml of methanol /g tissue. The homogenate was centrifuged at 5000g for 5 minutes. The supernatant was brought to 80% water using HPLC grade water and passed through Sep-Pak C-18 cartridges that had first been conditioned with 5.0 ml methanol, followed by 10.0 ml of distilled water. The cartridges were dried under vacuum and washed with 3.0 ml hexane (HPLC grade), and the CB recovered with 2.0 ml of EtOAc (HPLC grade). The elutes were evaporated under a stream of nitrogen and dissolved in 250 ul tetrohydrofuran (HPLC grade). Samples were filtered through a 0.45 um nylon syringe filter into a 50 ul sample loop. The samples were analyzed by HPLC, using a regular phase silica column, a solvent system of hexane:tetrahydrofuran (60:40), and analyzed at 230 nm. The lower limit of sensitivity was determined to be 1 ug per total extract since 20% was analyzed with a quantitative limit of 0.2 ug."}, "[4]": {"tested_on": "P388 murine leukemia cells (P388/ADR)", "assay": "P388/ADR cells in 24-well plates, 3 hours exposure, Coulter counting after 96 hours", "type": "cell-based", "conditions": "Mus musculus", "protocol": "P388 murine leukemia cells (P388/ADR) selected for multi-drug resistance to doxorubicin and other natural product anti-tumor agents, provided by the National Institutes of Health, were seeded at 5 X 10⁴ cells/ml in 24-well microtiter plates, 2.0 ml per well, in RPMI 1640 medium with 10% fetal calf serum and 10 uM mercaptoethanol. The cells were allowed to equilibrate and divide overnight at 37°C, in 5% CO₂, then treated in duplicate wells with ADR at 2.5, 5, 10, and 20 uM. Other duplicate wells were treated with CB at 2.5, 5, 7.5, 10, and 20 uM. Duplicate wells also contained the above amounts of ADR and CB, which were added to the cells simultaneously. […] After 3 hours of incubation at 37°C, the cells from each well were transferred to sterile centrifuge tubes, and the wells washed with 2.0 ml of sterile medium to assure full cell transfer. The tubes were centrifuged at 600 x g for 5 minutes, and the drug-medium decanted and discarded. The cells were then resuspended in 2.0 ml of fresh medium and plated into 24-well plates, incubated at 37° C for 96 hours, and cell viability and growth after treatment determined by Coulter counting."}, "[5]": {"assay": "Maximum tolerated single bolus dose (MTD) of CB by vehicle and route of administration", "type": "in vivo, CD2F₁ mice", "conditions": "for MTD: mouse, in vivo", "method": "as §1\nThe vehicles used in the invention may be selected with regard to the intended route of administration and standard pharmaceutical practice. The preparations can be injected parenterally, for example, intra-arterially or intravenously. The preparations may also be administered via oral, subcutaneous, intraperitoneal, or intramuscular routes. For parenteral administration, they can be used, for example, in the form of a sterile pyrogen-free aqueous solution which may contain other solutes.\nFor example, in the present studies, 0.85% (wt/v) sterile sodium chloride solution, sterile pyrogen-free CM-cellulose (1%)Tween-20 (2%), 10% Intralipid (Cutter Laboratories), or 48% ethanol/sodium chloride (v/v) solution were used as vehicles. Liposomes can alternatively be used as a vehicle. In such cases, the CB can be entrapped by any of the methods known in the art for forming liposomes, mentioned hereinbelow, and administered by any of the above-named routes of administration.\nThe MTD of CB suspension in pyrogen-free carboxymethyl cellulose(1%)/Tween -20 (2%) was 100 mg/kg SC, 50 mg/kg IP, and 10 mg/kg IV when administered to CD2F₁ mice. In DMSO, the MTD was 25 mg/kg IP, and less than 100 mg/kg SC, and in 33% ethanol, 10 mg/kg IV. At doses of 100 -150 mg/kg CB administered SC in CMC/Tw to CD2F₁ mice that had sustained challenge 24 hr with M109 tumor cells implanted SC, appearance of measurable tumor nodules were delayed by 66%.\nThe maximum tolerated dose (MTD) of CB (50 mg/kg CB) by intraperitoneal administration was determined by the following procedure. A solution of CB as isolated by Example 2 was obtained by sonication of the CB in DMSO (to make a 25 mg/kg solution of CB) for 2 minutes in an ultrasonic bath at 80-90 Hz power.\nThe above procedure was repeated for CB in CM-cellulose/Tween 20 (CMC/Tw) vehicle (0.1 ml administered).\nThe above procedures were repeated for 25 and 100 mg/kg CB in DMSO, and for 100 mg/kg CB in CMC/Tw.\nThe maximum tolerated dose (MTD) of CB (150 mg/kg, in CMC/Tw) by subcutaneous administration over the peritoneal wall was determined by the procedure of Example 8.\nThe maximum tolerated dose (MTD) of CB (5 mg/kg) by intravenous administration was determined by the procedure of Example 7. The CB was suspended in 0.1 ml 95% ethanol/0.85% NaCl (1:2 v/v), heated to 37°C and administered via tail vein within 5 minutes of mixing.\nThe above procedure was repeated using 0.1 ml CM-Cellulose/Tween 20.\nThe above procedure was repeated using 10, 20, 40, and 50 mg/kg dose of CB with the CM-Cellulose/Tween 20 vehicle, and 10, 20, and 40 mg/kg CB with EtOH/NaCl."}, "[6]": {"tested_on": "P388 murine leukemia cells (drug-resistant line)", "assay": "cells", "type": "cell-based", "conditions": "Mus musculus", "method": "ICs for cytochalasins and antineoplastic agents were determined by inoculating wells containing cultured cells with dilutions of the desired compound, and the resulting exposed cell viability determined at a fixed timepoint after exposure (i.e., 20 or 48 hours). The concentration of the compound that is found to inhibit 50% of the initial cells cultured is the IC50 of that compound with respect to those cells. The IC90 and IC100s can similarly be determined.\nInhibitory concentrations (\"ICs\") of ADR, CA, and CB on P388 murine leukemia cells (drug-resistant line) were determined as follows.\nCells (5 X 10⁴) were plated out in 200 uL of RPMI 1640 medium containing 10% calf serum. CB, CA, and ADR were added to wells as follows to determine inhibitory concentration as follows: 8 wells were inoculated with dilutions of CB: 0.00 uM CB, 1.00 uM CB, 2.00 uM CB, 4.00 uM CB, 10.00 uM CB, 20.00 uM, 40.00 uM CB, and 80.00 uM CB. […]\nAll wells were incubated at 37°C, in 5% CO₂ for 3 hours, after which time the plate was centrifuged at 600 X g for 5 minutes, the drug medium removed and replaced with 200 uL of fresh RPMI 1640 medium, containing 10% calf serum, centrifuged again at 600 X g, and cells refed and incubated for 45 hours at 37°C, in 5% CO₂. After the 45 hour incubation, the cells were analyzed for viability using the MTT reduction assay as described in Alley et al."}, "[7]": {"conditions": "CB on Day 1 or when the nodule was detected"}},
  "note": "Several values for one entry are separate records, joined by “and”; a condition that tells them apart may be missing. Equal values may be shown once. Read-outs that look alike come from different tables or passages of the source.",
  "data": [
    {"smiles": "C=C1C(C)C2C(Cc3ccccc3)NC(=O)C23OC(=O)C=CC(O)CCCC(C)CC=CC3C1O", "note": "(stereo not drawn) [CB, cytochalasin B]", "values": [
      {"measurement": "non-cytotoxic concentration", "setting": "[1]", "value": "up to 100 ug/ml and ≤ 200 uM"},
      {"measurement": "day of tumor appearance", "setting": "B16F10 tumor; CB 100 mg/kg peri-tumorally on Day 1, without treatment Day 7", "value": 18, "unit": "days"},
      {"measurement": "tumor nodule growth rate", "setting": "B16F10 tumor; CB administered subcutaneously", "value": "measurable effect"},
      {"measurement": "lung tumor nodules (metastases) versus vehicle controls", "setting": "[2]; 100 mg/kg CB SC at the time of tumor detection", "value": "fewer lung tumor nodules"},
      {"measurement": "delay of appearance of measurable tumor nodules", "setting": "[2]; 100-150 mg/kg CB SC in CMC/Tw, CD2F₁ mice, 24 hr after SC M109 challenge", "value": 66, "unit": "%"},
      {"measurement": "animals tumor-free by Day 50", "setting": "[2]; [7]", "value": 33, "unit": "%"},
      {"measurement": "median survival time", "setting": "[2]; [7]", "value": "increased median survival time"},
      {"measurement": "cytotoxic effects (life span)", "setting": "[2]; IV tumor challenge, 50 mg/kg CB by the IP route", "value": "no cytotoxic effects were observed"},
      {"measurement": "tumor metastases in the liver or spleen", "setting": "[2]; SC administration of CB", "value": "No effect"},
      {"measurement": "tumor growth rate", "setting": "[2]; SC peri-tumorally on Day 1 or when a measurable nodule was observed (around Day 6)", "value": "significant decrease in tumor growth rate"},
      {"measurement": "effect on SC tumor", "setting": "[2]; SC single bolus 24 hours after tumor challenge or when the tumor appeared (about day 6)", "value": "delay the appearance of measurable tumor nodules, to slow growth rate of the nodule to inhibit invasion, and to extend life span"},
      {"measurement": "persistence in liver", "setting": "[3]", "value": 72, "unit": "h"},
      {"measurement": "time by which cleared from the spleen and pancreas", "setting": "[3]", "value": "≤ 12", "unit": "h"},
      {"measurement": "tissue distribution", "setting": "[3]", "value": "appears at the highest levels in liver, spleen, and pancreas"},
      {"measurement": "remaining CB that persists in liver for up to 72 hours", "setting": "[3]; some CB metabolized within the first few minutes", "value": 35, "unit": "%"},
      {"measurement": "IC50", "setting": "[4]", "value": "35 to 40", "unit": "µM"},
      {"measurement": "toxicity in DMSO relative to CM-Cellulose/Tween 20", "setting": "[5]; IP administration (Example 8)", "value": "approximately twice as toxic"},
      {"measurement": "toxicity in DMSO relative to CM-Cellulose/Tween 20", "setting": "[5]; SC administration (Example 9)", "value": "approximately twice as toxic"},
      {"measurement": "MTD", "setting": "[5]; ip, CB suspension in carboxymethyl cellulose(1%)/Tween-20 (2%), single bolus, CD2F₁ mice", "value": 50, "unit": "mg/kg"},
      {"measurement": "MTD", "setting": "[5]; ip, in DMSO", "value": 25, "unit": "mg/kg"},
      {"measurement": "MTD", "setting": "[5]; iv, CB suspension in carboxymethyl cellulose(1%)/Tween-20 (2%), single bolus, CD2F₁ mice", "value": 10, "unit": "mg/kg"},
      {"measurement": "MTD", "setting": "[5]; iv, in 33% ethanol", "value": 10, "unit": "mg/kg"},
      {"measurement": "MTD", "setting": "[5]; sc, CB suspension in carboxymethyl cellulose(1%)/Tween-20 (2%), single bolus, CD2F₁ mice", "value": 100, "unit": "mg/kg"},
      {"measurement": "MTD", "setting": "[5]; sc, in DMSO", "value": "< 100", "unit": "mg/kg"},
      {"measurement": "sensitivity to CB of CD2F₁ as compared to B6D2F₁ mice", "setting": "[5]; single bolus dose", "value": "Slightly greater sensitivity"},
      {"measurement": "IC50", "setting": "[6]", "value": "35 to 40", "unit": "µM"}
    ]},
    {"smiles": "COc1cccc2c1C(=O)c1c(O)c3c(c(O)c1C2=O)C[C@@](O)(C(=O)CO)C[C@@H]3O[C@H]1C[C@H](N)[C@H](O)[C@H](C)O1", "note": "[ADR, doxorubicin, reference compound]", "values": [
      {"measurement": "IC50", "setting": "[6]; 3 hours exposure, viability by MTT after 45 hours, read-out: IC50", "value": 3.5, "unit": "µM"}
    ]}
  ]
}
